According to US20250032430A1, “USES OF RHODOQUINONE FOR THE TREATMENT OF DISEASE” (Whitehead Institute for Biomedical Research, priority 2021, published 2025):

How the values were obtained:
SDH complex [1] = biological target: T1, SDH complex (Homo sapiens, UniProt O14521+P21912+P31040+Q99643); test: SDH forward/reverse activity (succinate oxidation, fumarate reduction) by stable isotope tracing in cells; format: cell-based
T1 construct: endogenous in cells; host or cells: 143B cells (A5: live cells; A6: permeabilized mitochondria purified from them)
T1 sequence (P31040 43-664): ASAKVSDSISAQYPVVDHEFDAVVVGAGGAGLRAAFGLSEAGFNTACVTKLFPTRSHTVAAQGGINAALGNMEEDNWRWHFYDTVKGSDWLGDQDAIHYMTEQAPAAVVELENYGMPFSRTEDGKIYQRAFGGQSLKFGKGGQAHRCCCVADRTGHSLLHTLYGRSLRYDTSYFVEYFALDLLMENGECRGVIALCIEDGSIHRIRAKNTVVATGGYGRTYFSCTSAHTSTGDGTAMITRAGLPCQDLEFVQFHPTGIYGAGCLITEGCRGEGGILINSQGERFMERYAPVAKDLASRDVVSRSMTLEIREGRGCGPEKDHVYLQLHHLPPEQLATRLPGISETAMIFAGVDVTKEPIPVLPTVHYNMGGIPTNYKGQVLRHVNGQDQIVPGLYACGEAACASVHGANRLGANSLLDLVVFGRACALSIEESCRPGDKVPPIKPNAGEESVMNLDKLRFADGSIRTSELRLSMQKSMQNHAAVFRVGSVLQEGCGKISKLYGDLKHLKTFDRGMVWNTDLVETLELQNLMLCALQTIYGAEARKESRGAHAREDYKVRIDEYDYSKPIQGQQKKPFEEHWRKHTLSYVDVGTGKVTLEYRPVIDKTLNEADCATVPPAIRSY
T1 sequence (P21912 29-280): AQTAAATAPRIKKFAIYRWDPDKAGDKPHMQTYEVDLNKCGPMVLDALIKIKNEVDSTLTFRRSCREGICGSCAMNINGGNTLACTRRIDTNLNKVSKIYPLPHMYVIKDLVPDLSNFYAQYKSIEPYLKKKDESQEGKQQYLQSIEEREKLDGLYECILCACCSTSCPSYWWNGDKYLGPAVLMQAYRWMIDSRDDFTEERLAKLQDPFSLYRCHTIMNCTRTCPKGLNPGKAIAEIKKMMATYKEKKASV
T1 sequence (Q99643 30-169): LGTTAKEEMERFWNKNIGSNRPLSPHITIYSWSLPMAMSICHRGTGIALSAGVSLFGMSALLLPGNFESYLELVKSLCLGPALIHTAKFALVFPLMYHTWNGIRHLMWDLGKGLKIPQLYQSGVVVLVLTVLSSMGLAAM
T1 sequence (O14521 57-159): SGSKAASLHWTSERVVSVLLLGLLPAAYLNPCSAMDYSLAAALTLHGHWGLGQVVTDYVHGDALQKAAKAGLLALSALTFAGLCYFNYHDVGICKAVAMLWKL
Description: Fumarate reduction can be monitored in cells by the stable isotope tracing of either ^13C4-aspartate or ^13C5^15N2-glutamine. ^13C4-aspartate contributes to the fumarate pool via oxaloacetate and malate and so should lead to the production of ^13C4-succinate upon fumarate reduction (FIG. 2B). ^13C5^15N2-glutamine contributes to the fumarate pool through the reductive arm of the TCA cycle via glutamate, α-ketoglutarate, isocitrate, citrate, oxaloacetate, and malate. A key distinction between the two labeling approaches is that ^13C5^15N2-glutamine enriches the fumarate pool more upon antimycin treatment due to enhanced reductive carboxylation flux, whereas ^13C4-aspartate labels the fumarate pool to equivalent extents in vehicle and antimycin-treated cells (FIG. 2C). Therefore, with stable isotope tracing of ^13C4-aspartate, the level of ^13C4-succinate is a direct measure of fumarate reduction, whereas the stable isotope tracing of ^13C5^15N2-glutamine requires a ratiometric analysis of labeled succinate to labeled fumarate to normalize for differences in the extent of fumarate labeling.
To test if hypoxia triggers electron leakage onto fumarate or a net-reversal of the SDH complex, the ^13C5^15N2-glutamine tracer was utilized, which enables simultaneous quantification of the forward and reverse activities of SDH through the generation of unique isotopologues upon flux through the oxidative arm (α-ketoglutarate to succinate) compared to the reductive arm (α-ketoglutarate—via citrate—to fumarate) of the TCA cycle (FIG. 2E). In this assay, the forward (succinate oxidation) reaction was defined as the ratio of percent labeled ^13C4-fumarate to its precursor ^13C4-succinate (FIG. 2E) and the reverse (fumarate reduction) as that of percent labeled ^13C3-succinate to its precursor ^13C3-fumarate (FIG. 2E). This type of analysis can be performed when the labeling is in the steady-state, which was determined to be after 4-8 hours of incubation with ^13C5^15N2-glutamine (FIG. S2E-F). This ratiometric analysis of the succinate and fumarate isotopologues eliminates potential biases in the assay, such as higher ^13C3-fumarate labeling in antimycin-treated cells caused increased reductive carboxylation flux (FIG. S2E).
Stable isotope tracing in cells: Cells were seeded 24 hours prior to the experiment in 6-well dishes at 70% density. For stable isotope tracing of glutamine, glutamine-free DMEM (ThermoFisher) was supplemented with 2 mM ^13C5^15N2-glutamine (Sigma), 1 mM pyruvate, 5% FBS, 1% P/S, 0.1 mg/mL uridine. For stable isotope tracing of aspartate, DMEM containing 5% FBS, and 1% penicillin and streptomycin, and 0.1 mg/mL uridine (Sigma) was supplemented with the designated amount of 13C4-aspartate (Sigma) and the pH adjusted to 7.4. Uridine was left out of the media for stable isotope tracing experiments measuring nucleotide biosynthesis. Unless otherwise stated, for all experiments, cells were treated for 8 hours and metabolites were isolated as described below. Relevant compounds were added at the start of the incubation periods.

complex I = test: Complex I activity assay (DCPIP) on purified mitochondria; format: biochemical, human; settings: mitochondria from wild-type, UQCRC2 KO and COX4 KO 143B cells; 1 μM rotenone
Method: (§1) Isolation of Mitochondria for Biochemical Assays: 143B cells were scraped and pelleted at 1000×g for 5 minutes. Cell pellets were washed in 1×PBS and pelleted at 1000×g for 5 minutes. For tissue samples, approximately 100 mg of tissue powder was weighed out. Tissue powder or cells were re-suspended in isolation buffer (200 mM sucrose, 10 mM Tris HCl, 1 mM EGTA/Tris, pH 7.4 (adjusted with 1M HEPES)), transferred into an ice-cold glass homogenizer (VWR), and dounced with 15-30 strokes. Homogenates were transferred into tubes and spun at 600×g for 10 minutes at 4° C. Supernatants were moved to a new tube and centrifugation was repeated. Then, supernatants were moved to a new tube and pelleted at 7,000×g for 10 minutes at 4° C. Pellets were washed in isolation buffer and centrifugation was repeated. Pellets were subsequently stored at −80° C. until use.
Complex 1 activity assay (DCPIP): Purified mitochondria were re-suspended in buffer (0.22 M Mannitol, 0.075 M Sucrose, 1 mM EDTA, 10 mM HEPES pH 7.4, and one complete Protease inhibitor tablet (Sigma)) to a concentration of 5 mg/mL. […] Either 1 μM rotenone or equivalent DMSO was added to each well and baseline absorbance at 600 nm was measured on a SpectraMax iD5 plate reader (Molecular Devices). Reactions were initiated by adding NADH (Sigma) to a final concentration of 2 mM and absorbance at 600 nm was monitored over time.

[2] = test system: mitochondrial membrane potential; test: Mitochondrial membrane potential (TMRE dye); format: cell-based, human; settings: 250 nM CCCP
Method: Live Cell Imaging: 143B cells were seeded at 50% density in 6-well dishes 24 hours prior to the experiment. Cells were pre-incubated with 500 nM TMRE dye for 30 minutes and then imaging on a Nikon TE2000 inverted microscope was started. Images were taken at 1 minute intervals over the course of an hour in the mCherry channel while the plate was incubated in a chamber maintaining a temperature of 37° C. and 5% CO2.
Flow Cytometry: Cells were seeded 24 hours prior to the experiment at 50% density. On the day of the experiment, the cells were treated for the designated time with inhibitors. 30 minutes prior to the end of the incubation, 500 nM TMRE dye was added to the wells. Following incubation cells were washed, trypsinized, and filtered through a cell strainer prior to sorting. Fluorescence-activated cell sorting was performed on a LSR-II sorter, in which the fluorescence intensity of individual cells was quantified in the PE channel. Data were analyzed using FlowJo software (TreeStar).

DHODH = DHODH (Homo sapiens, UniProt Q02127)
Sequence of DHODH (Q02127 whole entry): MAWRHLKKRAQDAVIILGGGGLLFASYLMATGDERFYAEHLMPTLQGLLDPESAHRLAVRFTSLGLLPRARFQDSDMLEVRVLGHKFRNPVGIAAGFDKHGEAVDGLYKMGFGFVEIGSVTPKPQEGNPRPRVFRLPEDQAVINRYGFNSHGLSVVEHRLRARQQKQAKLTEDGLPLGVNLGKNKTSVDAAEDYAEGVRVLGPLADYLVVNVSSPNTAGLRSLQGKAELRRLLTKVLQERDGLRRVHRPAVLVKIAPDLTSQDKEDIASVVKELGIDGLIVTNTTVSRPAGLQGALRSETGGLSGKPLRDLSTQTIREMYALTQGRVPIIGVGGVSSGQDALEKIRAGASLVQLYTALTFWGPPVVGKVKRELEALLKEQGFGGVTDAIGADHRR
Method: Isolation of metabolites from adherent cells: To isolate metabolites, media was removed, cells were washed 2 times with ice cold 1×PBS, and wells were covered in LC-MS grade 80:20 Methanol:Water (ThermoFisher). Plates were scraped on dry ice and lysates were collected into eppendorf tubes. Lysates were vortexed for 10 minutes at 4° C. and centrifuged at 16,000×g for 10 minutes at 4° C. Supernatants were immediately dried down in a Refrigerated CentriVap Benchtop Vacuum Concentrator connected to a CentriVap-105 Cold Trap (Labconco). Dried pellets were stored at −80° C. until they were run on LC-MS.
Liquid Chromatography and Mass Spectrometry (polar): A QExactive bench top orbitrap mass spectrometer equipped with an Ion Max source and a HESI II probe coupled to a Dionex UltiMate 3000 HPLC system (Thermo Fisher Scientific) was used to perform all LC-MS experiments. The instrument underwent mass calibration using the standard calibration mixture every 7 days. 2 μL of re-suspended polar metabolite samples were injected onto a SeQuant ZIC-pHILIC 5 μm 150×2.1 mm analytical column equipped with a 2.1×20 mm guard column (MilliporeSigma). The column oven was held at 25° C. and the autosampler tray was held at 4° C. Buffer A was comprised of 20 mM ammonium carbonate, 0.1% ammonium hydroxide. Buffer B was comprised of 100% acetonitrile. The chromatographic gradient was run at a flow rate of 0.150 mL/min as follows: 0-20 min: linear gradient from 80-20% B; 20-20.5 min: linear gradient from 20-80% B; 20.5-28 min: hold at 80% B. The mass spectrometer was operated in full-scan, polarity-switching mode, with the spray voltage set to 3.0 kV, the heated capillary at 275° C., and the HESI probe at 350° C. The sheath gas flow was 40 units, the auxiliary gas flow was 15 units, and the sweep gas flow was 1 unit. MS data was collected in a range of m/z=70-1000. The resolution set at 70,000, the AGC target at 1×106, and the maximum injection time at 20 msec. An additional scan (m/z=220-700) was included in negative mode only to enhance detection of nucleotides.

143B cells [3] = test: Cell proliferation; format: cell-based, human; settings: for proliferation: UQCRC2 and COX4 knockout cells
Method: Proliferation: 25,000 cells were seeded in 6-well dishes and counted on day 1 and day 5 on a Beckman Coulter Counter. Doubling times were calculated using the following equation: […]

143B cells [4] = test: Oxygen consumption rate of cultured cells; format: cell-based, human; settings: UQCRC2 and COX4 knockout cells
Method: Oxygen Consumption Rate (Seahorse): Respiration was measured on intact 143B cells and on mitochondria purified from tissue on the Seahorse XFe-96 Analyzer (Seahorse Bioscience). Cells were incubated in a non-CO2 37° C. incubator in serum-free Seahorse XF RPMI Media (Seahorse Bioscience, Catalog #103336) supplemented with 5 mM glucose, 2 mM glutamine, and 1 mM pyruvate. Oxygen consumption rate (OCR) was measured over a period of 30 minutes. Oxygen consumption rate was also measured on mitochondria purified from mouse tissues. Mitochondria were incubated in MAS buffer (70 mM sucrose, 220 mM mannitol, 10 mM KH2PO4, 5 mM MgCl2, 2 mM HEPES pH 7.2, 1 mM EGTA, 2% BSA) supplemented with 2 mM ADP, 5 mM glutamate, 5 mM malate, 5 mM pyruvate, and 2.5 mM succinate. Oxygen consumption rate (OCR) was measured over a period of 30 minutes.
Oxygen Consumption Rate (Resipher): 25,000 143B cells were seeded into Thermo Nunc Treated, Flat-Bottom 96-Well Microplate (167008) in standard culture medium 24 hours prior to experimentation. […] Live oxygen consumption rate was measured for 3 hours and then media was changed to treat cells with the appropriate inhibitors. Live oxygen consumption rate was monitored for an additional 3 hours. Data were analyzed on Resipher web application (Lucid Scientific).

SDH complex [5] = test: SDH activity assay in permeabilized purified mitochondria; format: biochemical, human; settings: permeabilized purified mitochondria; 1 μM piericidin
Method: SDH activity was examined in permeabilized purified mitochondria. The rate of succinate oxidation was measured by monitoring fumarate production over time after initiating the reaction with succinate. The rate of fumarate reduction was measured in a separate assay by monitoring the rate of succinate production over time after initiating the reaction with fumarate and NADH. […] Moreover, complex I inhibition by piericidin suppressed the fumarate reduction caused by antimycin treatment (FIG. 2I).
as §1
SDH Activity Assay: Purified mitochondria were re-suspended in buffer (0.22 M Mannitol, 0.075 M Sucrose, 1 mM EDTA, 10 mM HEPES pH 7.4, and one complete Protease inhibitor tablet (Sigma)) to a concentration of 5 mg/mL and underwent 5 freeze-thaw cycles to permeabilize them. 30 μg mitochondria (6 uL) were diluted 1:10 (in 54 uL) of SDH activity assay buffer (27.5 mM KH2PO4 pH 7.4, 1.1 mM CoQ-10 (Sigma), 3.5 g/L BSA). Reactions were supplemented with DMSO, 1 μM antimycin, or 1 μM piericidin and pre-incubated at 37° C. for 10 minutes. […] Samples were centrifuged at 16,000×g for 10 minutes at 4° C. and supernatants were dried down and analyzed by LC-MS for succinate and fumarate.

COC(=O)CCC(=O)OC [dimethylsuccinate]
increase in fumarate reduction caused by antimycin treatment (SDH complex [1]; 143B cells, antimycin co-treatment): slightly suppressed

C=C(C)[C@H]1Cc2c(ccc3c2O[C@@H]2COc4cc(OC)c(OC)cc4[C@@H]2C3=O)O1 [rotenone]
complex I activity (complex I): significantly reduced

N#CC(C#N)=NNc1cccc(Cl)c1 [CCCP, Carbonyl cyanide 3-chlorophenylhydrazone]
TMRE fluorescence [2]: reduced fluorescence

Cc1c(-c2ccc(-c3ccccc3F)cc2)nc2ccc(F)cc2c1C(=O)O [brequinar]
13C3-UTP biosynthesis (DHODH; UQCRC2 and COX4 knockout 143B cells, 2 μM brequinar): ablated
de novo UTP biosynthesis (13C3-UTP generation, DHODH activity) (DHODH; wild-type 143B cells, 13C4-aspartate tracing 8 hours, 500 nM antimycin, 2 μM brequinar): ablated
proliferation (143B cells [3]): reduced
aspartate-increased proliferation of antimycin-treated cells (143B cells [3]; culture media supplemented with aspartate, antimycin-treated cells): ablated
O2 consumption rate (143B cells [4]): no effect

C/C=C(\C)[C@H](O)[C@H](C)/C=C(C)/C=C/C/C(C)=C/Cc1nc(OC)c(OC)c(O)c1C [piericidin]
DHODH activity (13C4-aspartate into 13C3-UTP) (DHODH; combined inhibition of complex III with antimycin and complex I with piericidin): no effect
proliferation (143B cells [3]): did reduce their proliferation, although to a lesser extent than in wild-type cells
fumarate reduction caused by antimycin treatment (SDH complex [5]): suppressed
O2 consumption rate (143B cells [4]): did not affect

O=C(O)CC(=O)O [malonic acid]
fumarate reduction (SDH complex [1]; SDHB knockout cells): no effect
fumarate reduction (SDH complex [1]; UQCRC2 and COX4 knockout cells): almost completely ablated
proliferation (143B cells [3]): significantly reduced

CC1(C)CC(NC(=O)C[P+](c2ccccc2)(c2ccccc2)c2ccccc2)CC(C)(C)N1[O] [MitoTEMPO]
fumarate reduction (SDH complex [1]; antimycin-treated 143B cells): did not affect
fumarate reduction (SDH complex [1]; vehicle-treated 143B cells): significant decrease
